Assay results taken from patent publication EP0400562A1, “Pyrrolopyrimidines, their production and use as tumoricidal agents” (Takeda Chemical Industries, Ltd., priority 1989, dated 1990).
In brackets after ≈: the same amount, converted by molar mass.

Tested on: Human epidermoid carcinoma KB cells
Experiment: cell growth inhibiting effect in KB cells (MTT method)
Type: cell-based
Settings: 72 hours culture with compound, absorbance at 590nm, concentration required to decrease the number of cells in the untreated control group by 50%
Description: The cell growth inhibiting effect (IC₅₀)of the compounds obtained in the Examples described below in KB cells was determined by the following method.
Human epidermoid carcinoma KB cells (1 x 10⁴ cells/ml) prepared according to a conventional method were inoculated into each well of the 96-microwell plate (0.1ml in a well) and subjected to standing culture at 37°C under 5% CO₂ for 24 hours. To this was added a solution of one of the compounds obtained in the Examples in 10% MEM (Nissui Pharmaceutical Co. Ltd. Japan), and subjected again to standing culture at 37°C under 5% CO₂ for 72 hours. Then the culture was pipetted out, and another 0.1ml of the solution of MTT (Dojin Laboratories Japan) in 10 % MEM (1.0mg/ml) was added and incubated at 37°C for 4 hours. Then 0.1ml of the […] (Wako Pure Chemicals, Japan) was added and incubated at 37°C for further 24 hours. The absorbance at 590nm was measured and the IC₅₀ value of the compound was defined as the concentration of the compound required to decrease the number of cells in the untreated control group by 50%.

IC50 (Homo sapiens, read-out: IC₅₀) [ng/mL] | Structure (SMILES) | IC₅₀ [µg/mL]
 | CN(CCC1CNc2nc(N)nc(N)c21)c1ccc(C(=O)N[C@@H](CCC(=O)O)C(=O)O)cc1 (stereo partly drawn) [Example 4, N-[4-[N-[2-(2,4-diamino-6,7-dihydro-5H-pyrrolo[2,3-d]pyrimidin-5-yl)ethyl]-N-methyl]aminobenzoyl]-L-glutamic acid] | 0.0025
5 (≈ 7.8 nM) | CCCCCCCC(=O)Nc1nc(S)c2c(CNCc3ccc(C(=O)N[C@@H](CCC(=O)OCC)C(=O)OCC)cc3)c[nH]c2n1 [Example 13, diethyl N-[4-[N-(4-mercapto-2-octanoylamino-7H-pyrrolo[2,3-d]pyrimidin-5-ylmethyl)aminomethyl]benzoyl] -L-glutamate] | 
 | Nc1nc(N)c2c(n1)NCC2CCNc1ccc(C(=O)N[C@@H](CCC(=O)O)C(=O)O)cc1 (stereo partly shown) [Example 10] | 0.0025
 | CN(CCc1c[nH]c2nc(N)nc(N)c12)c1ccc(C(=O)N[C@@H](CCC(=O)O)C(=O)O)cc1 [Example 6, N-[4-[N-[2-(2,4-diamino-7H-pyrrolo[2,3-d]pyrimidin-5-yl)ethyl]-N-methyl]aminobenzoyl]-L-glutamic acid] | 0.0013
